Assays:
Set-up in all cases: species or system human
[1] = system: Caco-2 colorectal carcinoma; experiment: In vivo growth of Caco-2 colorectal cancer xenografts; conditions: Caco-2, day 28
[2] = system: AsPC-1 pancreatic cancer cells; experiment: Nrf2- and redox state-related enzyme activities and metabolites in AsPC-1 cells growing in vivo; conditions: AsPC-1, in vivo +Pter, day 28
Procedure: (§1) To measure enzyme activity, isolated tumor cells were homogenized in 0.1 M phosphate buffer (pH 7.2) at 4° C. GCL and GSS activities were measured as described previously (Obrador, E. et al. Hepatology 35, 74-81 (2002)). GPX (selenium dependent) activity was measured as described by Flohé and Gunzler (Flohe, L. & Gunzler, W. A. Methods Enzymol 105, 114-121 (1984)) using H2O2 as a substrate. GSR activity was determined as described by Akerboom and Sies (Akerboom, T. P. et al, Bull Eur Physiopathol Respir 17 Suppl, 221-227 (1981)). GGT activity was measured as described previously (Obrador, E. et al. Hepatology 35, 74-81 (2002)). GST activity was measured using an assay kit from Sigma. TXNRD activity, defined by the concentration of sodium-lipoate (disulfide) reduced to dehydrolipoate (dithiol) per milligram protein, was measured as previously described (Javvadi, P. et al. Cancer Res 70, 1941-1950 (2010)). SOD activity was measured as described by Flohé and Otting (Flohe, L. & Otting, F. Methods Enzymol 105, 93-104 (1984).) using 2 mM cyanide in the assay medium to distinguish mangano-type enzyme (SOD2) from the cuprozinc type (SOD1). CAT activity was analyzed as described by Aebi (Aebi, H. Methods Enzymol 105, 121-126 (1984)). NOX activity was measured by chemiluminescence following the methodology of Wind et al. (Wind, S. et al. Comparative pharmacology of chemically distinct NADPH oxidase inhibitors. Br J Pharmacol 161, 885-898 (2010)). Protein concentration was determined with the Pierce BCA protein assay (Fisher Scientific, Waltham, Mass.). […]
(§2) GSH, GSSG, NADP^+ and NADPH Determination.
(§3) GSH and GSSG were determined, following procedures previously described (Obrador, E. et al. PLoS One 9, e96466 (2014)), by LC/MS using the same equipment described above for pterostilbene determination. Cell processing was performed according to published methodology, where rapid N-ethylmaleimide derivatization was used to prevent GSH auto-oxidation (Asensi, M. et al. Anal Biochem 217, 323-328 (1994)). NADP^+ and NADPH were quantitated using an assay kit from Sigma (St. Louis, Mo.).

[3] = system: BxPC-3 pancreatic cancer cells; experiment: Nrf2- and redox state-related enzyme activities and metabolites in BxPC-3 cells growing in vivo; conditions: BxPC-3, in vivo +Pter, day 35
Procedure: as §1
Quantitative measurement of H2O2 and flow cytometry determination of O2^⋅− generation were performed as previously described (Benlloch, M. et al. J Biol Chem 281, 69-79 (2006)).
as §2, §3

Q: With COc1cc(/C=C/c2ccc(O)cc2)cc(OC)c1 [Pter, trans-3,5-dimethoxy-4′-hydroxystilbene] as the molecule, how does the Tumor vol. [1] read?
A: 795 ± 285 mm^3

Q: What about the CAT [2] of the same molecule?
A: 1.2 ± 0.3 mU/10^6 cells

Q: What about the G6PDH [2] of the same molecule?
A: 317 ± 84 mU/10^6 cells

Q: What about the GCL [2] of the same molecule?
A: 85 ± 27 mU/10^6 cells

Q: What about the GGT [2] of the same molecule?
A: 27.5 ± 7.4 mU/10^6 cells

Q: What about the GPX [2] of the same molecule?
A: 15.0 ± 2.6 mU/10^6 cells

Q: And the GSH [2]?
A: 10.4 ± 2.0 nmol/10^6 cells

Q: What about the GSH/GSSG [2] of the same molecule?
A: 35 ± 6

Q: What about the GSR [2] of the same molecule?
A: 5.5 ± 1.2 mU/10^6 cells

Q: What about the GSS [2] of the same molecule?
A: 12.4 ± 2.7 mU/10^6 cells

Q: What about the GSSG [2] of the same molecule?
A: 0.3 ± 0.1 nmol/10^6 cells

Q: And the GST [2]?
A: 8.0 ± 1.5 mU/10^6 cells

Q: And the H2O2 [2]?
A: 1.4 ± 0.3 nmol/10^6 cells × min

Q: What about the IDH [2] of the same molecule?
A: 1.0 ± 0.3 U/10^6 cells

Q: What about the ME [2] of the same molecule?
A: 55 ± 15 mU/10^6 cells

Q: What about the NADPH [2] of the same molecule?
A: 0.05 ± 0.02 nmol/mg prot

Q: And the “NADPH/NADP^+” value [2]?
A: 1.7 ± 0.4

Q: And the “NADP^+” value [2]?
A: 0.03 ± 0.01 nmol/mg prot

Q: And the NOX [2]?
A: 115 ± 33 R.L.U./10^6 cells

Q: And the “O2′−” value [2]?
A: 8.4 ± 2.4 ΔFL1, a.u.

Q: And the SOD1 [2]?
A: 0.2 ± 0.05 U/10^6 cells

Q: What about the SOD2 [2] of the same molecule?
A: 0.05 ± 0.02 U/10^6 cells

Q: And the TXN [2]?
A: 0.3 ± 0.15 μg/10^6 cells

Q: What about the TXNRD [2] of the same molecule?
A: 0.7 ± 0.2 U/10^6 cells

Q: What about the CAT [3] of the same molecule?
A: 1.0 ± 0.2 mU/10^6 cells

Q: And the G6PDH [3]?
A: 264 ± 56 mU/10^6 cells

Q: What about the GCL [3] of the same molecule?
A: 36 ± 15 mU/10^6 cells

Q: And the GGT [3]?
A: 19.7 ± 3.7 mU/10^6 cells

Q: And the GPX [3]?
A: 9.2 ± 2.0 mU/10^6 cells

Q: And the GSH [3]?
A: 3.7 ± 1.1 nmol/10^6 cells

Q: What about the GSH/GSSG [3] of the same molecule?
A: 12 ± 4

Q: What about the GSR [3] of the same molecule?
A: 2.3 ± 0.7 mU/10^6 cells

Q: What about the GSS [3] of the same molecule?
A: 4.0 ± 1.3 mU/10^6 cells

Q: What about the GSSG [3] of the same molecule?
A: 0.3 ± 0.1 nmol/10^6 cells

Q: What about the GST [3] of the same molecule?
A: 3.2 ± 1.0 mU/10^6 cells

Q: And the H2O2 [3]?
A: 1.3 ± 0.2 nmol/10^6 cells × min

Q: And the IDH [3]?
A: 1.7 ± 0.5 U/10^6 cells

Q: And the ME [3]?
A: 40 ± 7 mU/10^6 cells

Q: And the NADPH [3]?
A: 0.03 ± 0.01 nmol/mg prot

Q: What about the “NADPH/NADP^+” value [3] of the same molecule?
A: 0.6 ± 0.2

Q: What about the “NADP^+” value [3] of the same molecule?
A: 0.05 ± 0.005 nmol/mg prot

Q: And the NOX [3]?
A: 89 ± 25 R.L.U./10^6 cells

Q: What about the “O2′−” value [3] of the same molecule?
A: 5.9 ± 1.7 ΔFL1, a.u.

Q: What about the SOD1 [3] of the same molecule?
A: 0.1 ± 0.05 U/10^6 cells

Q: And the SOD2 [3]?
A: 0.05 ± 0.02 U/10^6 cells

Q: What about the TXN [3] of the same molecule?
A: 0.2 ± 0.1 μg/10^6 cells

Q: And the TXNRD [3]?
A: 0.8 ± 0.2 U/10^6 cells

From patent US11179348B2, “Combination comprising pterostilbene for the treatment of cancer” (FUNDACIÓN UNIVERSIDAD CATÓLICA DE VALENCIA SAN VICENTE …, priority 2015, dated 2021)
